Experiment [1] deals with Trop2-positive cells BxPC-3 and Trop2-negative cells HepG2. The experiment in a line: Bystander killing in BxPC-3/HepG2 co-culture assay (BxPC-3:HepG2=4:1). The format is cell-based, human. Particulars: effect example 1.1, conclusion. As to the method:
(§1) A negative control group was set: 3 mL of 45% RPMI-1640+45% DMEM+10% FBS medium was added to each well. After the treatment, the cells were moved to the incubator and incubated for 96 h. After the incubation, cells were digested, and washed once with 1×PBS, then transferred to a flow tube, and centrifuged at 2000 rpm for 3 min. The supernatant was then discarded, and the cell amount and cell viability were detected. […] The cells were washed with 1×PBS, the supernatant was discarded after centrifugation, 200 μL of 5 μg/mL human IgG Fc antibody was added, and the resulting cells were continued to incubate at 4° C. for 30 min after mixing. Finally, the cells were washed with 1×PBS, the supernatant was discarded after centrifugation, and the cells were resuspended in PBS, detected by flow cytometry and analyzed by FlowJo software.

Experiment [2] relates to Trop2-positive cells BxPC-3 and Trop2-negative HepG2 cells. The experiment in a line: Bystander killing in BxPC-3/HepG2 co-culture assay (BxPC-3:HepG2=2:1). The experiment is classed as cell-based, human. Particulars: effect example 1.3, conclusion. On the procedure: as §1

As for DS1062a, the bystander killing effect result in experiment [1] and in experiment [2] was “had bystander killing effects” each time.

These data come from US12539336B2, “Antibody, linkers, payload, conjugates and applications thereof” (GeneQuantum Healthcare (Suzhou) Co., Ltd., priority 2022, dated 2026).
